PubChem BioAssay AID330 (DTP/NCI, 2004)
“And” between values parts separate entries of the source, which are not always exact repeats. Equal entries are not always repeated. Toxic doses and inconclusive results are not listed.

System: P388 leukemia ip, CD2F1 mice, survival T/C
Experiment: NCI In Vivo Anticancer Drug Screen. Data for tumor model P388 Leukemia (intraperitoneal) in CD2F1 (CDF1) mice
Conditions: endpoint: median survival time, higher = longer survival
Procedure, shortened: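 Mice carrying the transplanted tumor received test compound or vehicle. Survival was recorded in each group, and the value is the treated-group measurement divided by that of the vehicle-treated control group.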

[1] = dose: 6.25 mg/kg/injection, schedule: Q01DX009 (ip), vehicle: Klucel (hydroxypropylcellulose) (HPC)
[2] = dose: 6.25 mg/kg/injection, schedule: Q01DX009 (ip), vehicle: saline
[3] = dose: 12.5 mg/kg/injection, schedule: Q01DX009 (ip), vehicle: Klucel (hydroxypropylcellulose) (HPC)
[4] = dose: 12.5 mg/kg/injection, schedule: Q01DX009 (ip), vehicle: saline
[5] = dose: 50.0 mg/kg/injection, schedule: Q01DX009 (ip), vehicle: Klucel (hydroxypropylcellulose) (HPC)
[6] = dose: 100.0 mg/kg/injection, schedule: Q01DX009 (ip), vehicle: Klucel (hydroxypropylcellulose) (HPC)
[7] = dose: 200.0 mg/kg/injection, schedule: Q01DX009 (ip), vehicle: Klucel (hydroxypropylcellulose) (HPC)
[8] = dose: 50.0 mg/kg/injection, schedule: Q01DX005 (ip), vehicle: saline with Tween-80
[9] = dose: 100.0 mg/kg/injection, schedule: Q01DX005 (ip), vehicle: saline with Tween-80
[10] = dose: 200.0 mg/kg/injection, schedule: Q01DX005 (ip), vehicle: saline with Tween-80
[11] = dose: 25.0 mg/kg/injection, schedule: Q01DX009 (ip), vehicle: Klucel (hydroxypropylcellulose) (HPC)
[12] = dose: 12.5 mg/kg/injection, schedule: Q01DX005 (ip), vehicle: saline with Tween-80
[13] = dose: 25.0 mg/kg/injection, schedule: Q01DX005 (ip), vehicle: saline with Tween-80

CSCCC([NH-])C(=O)O.CSCCC([NH-])C(=O)O.[Cu+2] (configuration not stated)
T/C (dose: 3.12 mg/kg/injection, schedule: Q01DX009 (ip), vehicle: saline): 102 % of control | T/C [1]: 94 % of control | T/C [2]: 94 % of control | T/C [3]: 94 % of control | T/C [4]: 100 % of control

O=C(NC(Cc1ccc(Br)cc1)C(=O)O)c1ccc(I)cc1 (configuration not stated)
T/C (dose: 50.0 mg/kg/injection, schedule: Q01DX005 (ip), vehicle: Klucel (hydroxypropylcellulose) (HPC)): 98 % of control | T/C (dose: 100.0 mg/kg/injection, schedule: Q01DX005 (ip), vehicle: Klucel (hydroxypropylcellulose) (HPC)): 98 % of control | T/C (dose: 200.0 mg/kg/injection, schedule: Q01DX005 (ip), vehicle: Klucel (hydroxypropylcellulose) (HPC)): 107 % of control

CCOC(=O)CNC(=O)N1COCC1(C)C
T/C [5]: 95 % of control | T/C [6]: 95 % of control | T/C [7]: 95 % of control

CC1=CC(=O)C=CC1=Nc1ccc(N(CCCl)CCCl)cc1
T/C (dose: 50.0 mg/kg/injection, schedule: Q04DX003 (ip), vehicle: Klucel (hydroxypropylcellulose) (HPC)): 103 % of control | T/C (dose: 100.0 mg/kg/injection, schedule: Q04DX003 (ip), vehicle: Klucel (hydroxypropylcellulose) (HPC)): 102 % of control

CCCCCCCCCCC(=O)C(=O)c1ccc(O)c(C)c1O
T/C [5]: 100 % of control | T/C [6]: 99 % of control | T/C [7]: 110 % of control

COC(=S)c1ccc(C(=S)OC)cc1
T/C (dose: 50.0 mg/kg/injection, schedule: Q01DX009 (ip), vehicle: saline with Tween-80): 99 % of control | T/C (dose: 100.0 mg/kg/injection, schedule: Q01DX009 (ip), vehicle: saline with Tween-80): 105 % of control | T/C (dose: 200.0 mg/kg/injection, schedule: Q01DX009 (ip), vehicle: saline with Tween-80): 103 % of control

COc1ccc2cc3n(c(=Nc4ccccc4)c2c1OC)CCc1cc2c(cc1-3)OCO2
T/C (dose: 0.63 mg/kg/injection, schedule: Q01DX009 (ip), vehicle: water): 97 % of control | T/C (dose: 1.25 mg/kg/injection, schedule: Q01DX009 (ip), vehicle: water): 93 % of control | T/C (dose: 2.5 mg/kg/injection, schedule: Q01DX009 (ip), vehicle: water): 101 % of control | T/C (dose: 5.0 mg/kg/injection, schedule: Q01DX009 (ip), vehicle: water): 124 % of control | T/C (dose: 10.0 mg/kg/injection, schedule: Q01DX009 (ip), vehicle: water): 99 % of control | T/C (dose: 20.0 mg/kg/injection, schedule: Q01DX009 (ip), vehicle: water): 101 % of control

NC(=O)c1[nH]cnc1NN=NCCF
T/C (dose: 0.39 mg/kg/injection, schedule: Q01DX009 (ip), vehicle: distilled water + Tween-80): 116 % of control and 122 % of control | T/C (dose: 0.78 mg/kg/injection, schedule: Q01DX009 (ip), vehicle: distilled water + Tween-80): 116 % of control | T/C (dose: 1.56 mg/kg/injection, schedule: Q01DX009 (ip), vehicle: distilled water + Tween-80): 150 % of control | T/C (dose: 3.13 mg/kg/injection, schedule: Q01DX009 (ip), vehicle: distilled water + Tween-80): 179 % of control | T/C (dose: 6.25 mg/kg/injection, schedule: Q01DX009 (ip), vehicle: distilled water + Tween-80): 175 % of control

COc1cc2c(cc1C(C)c1ccc(O)cc1)OCO2 (configuration not stated)
T/C (dose: 50.0 mg/kg/injection, schedule: Q01DX005 (ip), vehicle: distilled water + Tween-80): 100 % of control | T/C (dose: 100.0 mg/kg/injection, schedule: Q01DX005 (ip), vehicle: distilled water + Tween-80): 97 % of control | T/C (dose: 200.0 mg/kg/injection, schedule: Q01DX005 (ip), vehicle: distilled water + Tween-80): 96 % of control

Nc1nc2c(c(=O)[nH]1)N(C(=O)CCl)C(CNc1ccc(C(=O)NC(CCC(=O)O)C(=O)O)cc1)CN2 (configuration not stated)
T/C (dose: 50.0 mg/kg/injection, schedule: Q01DX009 (ip), vehicle: water): 99 % of control | T/C (dose: 100.0 mg/kg/injection, schedule: Q01DX009 (ip), vehicle: water): 103 % of control | T/C (dose: 200.0 mg/kg/injection, schedule: Q01DX009 (ip), vehicle: water): 101 % of control

O=C(/C=C/c1ccccc1)Oc1cc([N+](=O)[O-])cc([N+](=O)[O-])c1
T/C (dose: 100.0 mg/kg/injection, schedule: Q04DX002 (ip), vehicle: saline with Tween-80): 112 % of control | T/C (dose: 200.0 mg/kg/injection, schedule: Q04DX002 (ip), vehicle: saline with Tween-80): 105 % of control

Cc1cccc(Nc2nnc3nc(-c4ccccc4)c(-c4ccccc4)nn23)c1
T/C (dose: 25.0 mg/kg/injection, schedule: Q01DX001 (ip), vehicle: saline with Tween-80): 94 % of control | T/C (dose: 50.0 mg/kg/injection, schedule: Q01DX001 (ip), vehicle: saline with Tween-80): 100 % of control | T/C (dose: 100.0 mg/kg/injection, schedule: Q01DX001 (ip), vehicle: saline with Tween-80): 91 % of control and 95 % of control

CCOC(=O)c1c[nH]c2c(OC)ccc(OC)c2c1=O
T/C [8]: 99 % of control | T/C [9]: 100 % of control | T/C [10]: 100 % of control

CCC(O)(c1ccccc1)C(O)c1ccccc1 (configuration not stated)
T/C [11]: 98 % of control | T/C [5]: 98 % of control | T/C (dose: 50.0 mg/kg/injection, schedule: Q01DX009 (ip), vehicle: saline + alcohol): 102 % of control and 124 % of control | T/C [6]: 97 % of control | T/C (dose: 100.0 mg/kg/injection, schedule: Q01DX009 (ip), vehicle: saline + alcohol): 99 % of control and 123 % of control | T/C [7]: 88 % of control | T/C (dose: 200.0 mg/kg/injection, schedule: Q01DX009 (ip), vehicle: saline + alcohol): 98 % of control | T/C (dose: 400.0 mg/kg/injection, schedule: Q01DX009 (ip), vehicle: Klucel (hydroxypropylcellulose) (HPC)): 96 % of control

CC(=O)C[n+]1cccc(C)c1Sc1ccccc1
T/C [12]: 97 % of control | T/C [13]: 101 % of control | T/C [8]: 108 % of control and 94 % of control

Cc1cc(Cl)cc2c1NC(=O)C2(O)C/C(=N/NC(=O)CC#N)c1cccc([N+](=O)[O-])c1 (configuration not stated)
T/C (dose: 60.0 mg/kg/injection, schedule: Q01DX005 (ip), vehicle: saline with Tween-80): 93 % of control | T/C [9]: 103 % of control | T/C [10]: 101 % of control

CCC(=O)NC1=C(N2CC2C)C(=O)C(NC(=O)CC)=C(N2CC2C)C1=O (configuration not stated)
T/C [3]: 210 % of control | T/C [4]: 164 % of control | T/C [11]: 103 % of control | T/C (dose: 25.0 mg/kg/injection, schedule: Q01DX009 (ip), vehicle: saline): 117 % of control

CC(=N/N=C(N)N)/C(C)=N/N=C(N)N
T/C [8]: 104 % of control | T/C [9]: 110 % of control

CC(O)(CC(=O)O)CC(=O)O
T/C (dose: 25.0 mg/kg/injection, schedule: Q01DX005 (ip), vehicle: water): 101 % of control | T/C (dose: 50.0 mg/kg/injection, schedule: Q01DX005 (ip), vehicle: water): 100 % of control | T/C (dose: 100.0 mg/kg/injection, schedule: Q01DX005 (ip), vehicle: water): 95 % of control | T/C (dose: 200.0 mg/kg/injection, schedule: Q01DX005 (ip), vehicle: water): 90 % of control | T/C (dose: 400.0 mg/kg/injection, schedule: Q01DX005 (ip), vehicle: water): 92 % of control

O=NN1CCNC1=O
T/C (dose: 1.5 mg/kg/injection, schedule: Q04DX003 (ip), vehicle: saline): 113 % of control | T/C [2]: 168 % of control | T/C [4]: 245 % of control | T/C (dose: 12.5 mg/kg/injection, schedule: Q04DX003 (ip), vehicle: saline): 163 % of control | T/C (dose: 16.5 mg/kg/injection, schedule: Q04DX003 (ip), vehicle: saline): 187 % of control | T/C (dose: 25.0 mg/kg/injection, schedule: Q04DX003 (ip), vehicle: saline): 187 % of control and 213 % of control

O=C(NP(=O)(O)NC(Cc1ccccc1)C(=O)O)OCc1ccccc1 (configuration not stated)
T/C (dose: 50.0 mg/kg/injection, schedule: Q01DX005 (ip), vehicle: saline): 106 % of control | T/C (dose: 100.0 mg/kg/injection, schedule: Q01DX005 (ip), vehicle: saline): 109 % of control | T/C (dose: 200.0 mg/kg/injection, schedule: Q01DX005 (ip), vehicle: saline): 102 % of control

CCCCCCCC(=O)C1C(c2ccc(C(C)C)cc2)CC(=O)C(CCCCCC)C1c1ccc(C(C)C)cc1 (configuration not stated)
T/C (dose: 6.25 mg/kg/injection, schedule: Q01DX005 (ip), vehicle: saline with Tween-80): 91 % of control | T/C [12]: 89 % of control | T/C [13]: 99 % of control | T/C [9]: 93 % of control | T/C [10]: 98 % of control

CC(C)CCC[C@@H](C)[C@H]1CC[C@H]2[C@@H]3CCC(=O)[C@](C)(CCC(=O)O)[C@H]3CC[C@]12C
T/C [1]: 96 % of control | T/C [3]: 96 % of control | T/C [11]: 92 % of control | T/C [5]: 87 % of control
